Laboratory results published in US9738642B2, “Triazolopyridine ether derivatives and their use in neurological and pyschiatric disorders” (BRISTOL-MYERS SQUIBB COMPANY, priority 2013, dated 2017).
Counter-ions that a name gives are not always drawn. Like-named read-outs stand apart in the source and are kept apart here.

Target: T1, human mGluR2 (Homo sapiens, UniProt Q14416)
T1 construct: expressed in transfected cells; host or cells: HEK293 clonal line
Assay: mGluR2 cAMP assay
Type: cell-based
Details: clonally expressed human mGluR2 in HEK293, 1 μM forskolin, 1 μM LY-341495, 30 min, CISBIO cAMP kit
Description: On the day of the assay, media was removed, cells washed with PBS, cells harvested and pelleted by centrifugation. Cell pellets were resuspended in stimulation buffer without forskolin and counted. […] A standard curve was created using a top concentration of cAMP of 1 μM in the stimulation buffer, 1:3 dilutions over 14 points in the absence of cells. […] In house software converted the fluorescence value ratios to units of cAMP concentration, which is then used to calculate % inhibition for each test compound. MGluR2 cAMP Assay Materials and Methods. […] Buffer without forskolin was used as a negative control. Solutions of D2 and cryptate detection reagents from the CISBIO dynamic cAMP kit (62AM4PEJ) were diluted 1:40 in lysis buffer. Lysis buffer consisted of 50 mM Phosphate Buffer pH 7.0, 800 mM Potassium Fluoride, 0.2% BSA, and 1.0% Triton. Assay reaction was terminated by addition of detection reagents in lysis buffer. One hour later, plates were read on a PE Viewlux. Data was extracted, and concentration response curves generated by fitting the data to a standard 4 parameter logistic equation from which EC50 values were determined.

[1] = read-out: EC50 (nM), activity in mGluR2 cAMP assay

T1 sequence (Q14416 19-872): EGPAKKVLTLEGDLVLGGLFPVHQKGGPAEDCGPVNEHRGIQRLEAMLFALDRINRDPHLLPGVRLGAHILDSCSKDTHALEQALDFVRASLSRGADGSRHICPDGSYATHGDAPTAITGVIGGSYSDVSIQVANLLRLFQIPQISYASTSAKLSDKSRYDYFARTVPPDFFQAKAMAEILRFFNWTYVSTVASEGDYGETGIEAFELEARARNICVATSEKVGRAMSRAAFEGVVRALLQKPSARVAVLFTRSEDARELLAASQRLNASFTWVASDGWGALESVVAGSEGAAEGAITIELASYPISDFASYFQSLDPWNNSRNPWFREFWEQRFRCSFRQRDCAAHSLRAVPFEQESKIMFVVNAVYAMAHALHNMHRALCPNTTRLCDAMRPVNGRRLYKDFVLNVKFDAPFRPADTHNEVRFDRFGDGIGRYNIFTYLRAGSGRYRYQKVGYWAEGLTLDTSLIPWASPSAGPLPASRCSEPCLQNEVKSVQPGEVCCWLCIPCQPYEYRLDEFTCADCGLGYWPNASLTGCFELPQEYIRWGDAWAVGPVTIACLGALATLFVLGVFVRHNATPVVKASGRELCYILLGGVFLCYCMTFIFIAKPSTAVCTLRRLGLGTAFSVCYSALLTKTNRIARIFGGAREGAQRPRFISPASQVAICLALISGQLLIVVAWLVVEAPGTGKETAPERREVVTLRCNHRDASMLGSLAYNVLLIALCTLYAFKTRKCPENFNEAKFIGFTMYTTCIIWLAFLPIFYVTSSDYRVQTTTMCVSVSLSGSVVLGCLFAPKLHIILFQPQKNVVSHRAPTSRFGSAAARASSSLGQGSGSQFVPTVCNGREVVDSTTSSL

| EC50 [1] [nM] | SMILES | EC50 (EC50 (nM), activity in mGluR2 cAMP assay) [nM] |
| --- | --- | --- |
| 1 | CC(COc1ccn2c(CC3CC3)nnc2c1C(F)(F)F)c1c(F)cccc1Cl (racemic) [Example 5, 7-(2-(2-Chloro-6-fluorophenyl)propoxy)-3-(cyclopropylmethyl)-8-(trifluoromethyl)-[1,2,4]triazolo[4,3-a]pyridine] |  |
| 130 | CC(C#N)(COc1ccn2c(CC3CC3)nnc2c1C(F)(F)F)c1ccc(F)cc1 (racemic) [Example 12, 3-(3-(Cyclopropylmethyl)-8-(trifluoromethyl)-[1,2,4]triazolo[4,3-a]pyridin-7-yloxy)-2-(4-fluorophenyl)-2-methylpropanenitrile, TFA salt] |  |
| 31 | COC(C)(COc1ccn2c(CC3CC3)nnc2c1C(F)(F)F)c1ccc(F)cc1 (racemic) [Example 21, 3-(Cyclopropylmethyl)-7-(2-(4-fluorophenyl)-2-methoxypropoxy)-8-(trifluoromethyl)-[1,2,4]triazolo[4,3-a]pyridine] |  |
| 0.3 | COc1cccc(F)c1[C@H]1C[C@@H]1COc1ccn2c(CC3CC3)nnc2c1C(F)(F)F (racemic) [Example 32, (±)-3-(Cyclopropylmethyl)-7-(((1S,2S)-2-(2-fluoro-6-methoxyphenyl)cyclopropyl)methoxy)-8-(trifluoromethyl)-[1,2,4]triazolo[4,3-a]pyridine] |  |
| 0.2 | COc1ccccc1[C@H]1C[C@@H]1COc1ccn2c(CC3CC3)nnc2c1C(F)(F)F (racemic) [Example 37, (±)-3-(Cyclopropylmethyl)-7-(((1S,2S)-2-(2-methoxyphenyl)cyclopropyl)methoxy)-8-(trifluoromethyl)-[1,2,4]triazolo[4,3-a]pyridine] |  |
| 1.4 | FC(F)(F)Oc1ccccc1[C@H]1C[C@@H]1COc1ccn2c(CC3CC3)nnc2c1C(F)(F)F (racemic) [Example 38, (±)-3-(Cyclopropylmethyl)-7-(((1S,2S)-2-(2-(trifluoromethoxy)phenyl)cyclopropyl)methoxy)-8-(trifluoromethyl)-[1,2,4]triazolo[4,3-a]pyridine] |  |
| 1.4 | Fc1ccccc1[C@H]1C[C@@H]1COc1ccn2c(CC3CC3)nnc2c1C(F)(F)F (racemic) [Example 43, (±)-3-(Cyclopropylmethyl)-7-(((1S,2S)-2-(2-fluorophenyl)cyclopropyl)methoxy)-8-(trifluoromethyl)-[1,2,4]triazolo[4,3-a]pyridine] |  |
| 1.9 | Fc1ccc(F)c([C@H]2C[C@@H]2COc2ccn3c(CC4CC4)nnc3c2C(F)(F)F)c1 (racemic) [Example 44, (±)-3-(Cyclopropylmethyl)-7-(((1S,2S)-2-(2,5-difluorophenyl)cyclopropyl)methoxy)-8-(trifluoromethyl)-[1,2,4]triazolo[4,3-a]pyridine] |  |
| 1.3 | COc1ccc([C@H]2C[C@@H]2COc2ccn3c(CC4CC4)nnc3c2C(F)(F)F)cc1 (racemic) [Example 45, (±)-3-(Cyclopropylmethyl)-7-(((1S,2S)-2-(4-methoxyphenyl)cyclopropyl)methoxy)-8-(trifluoromethyl)-[1,2,4]triazolo[4,3-a]pyridine] |  |
| 0.8 | COc1c(F)ccc(F)c1[C@H]1C[C@@H]1COc1ccn2c(CC3CC3)nnc2c1C(F)(F)F (racemic) [Example 47, (±)-3-(Cyclopropylmethyl)-7-(((1S,2S)-2-(3,6-difluoro-2-methoxyphenyl)cyclopropyl)methoxy)-8-(trifluoromethyl)-[1,2,4]triazolo[4,3-a]pyridine] |  |
| 0.5 | Fc1cccc(Cl)c1[C@H]1C[C@@H]1COc1ccn2c(CC3CC3)nnc2c1C(F)(F)F (racemic) [Example 48, (±)-7-(((1S,2S)-2-(2-chloro-6-fluorophenyl)cyclopropyl)methoxy)-3-(cyclopropylmethyl)-8-(trifluoromethyl)-[1,2,4]triazolo[4,3-a]pyridine] |  |
| 0.4 | COc1cc(F)ccc1[C@H]1C[C@@H]1COc1ccn2c(CC3CC3)nnc2c1C(F)(F)F (racemic) [Example 49, (±)-3-(Cyclopropylmethyl)-7-(((1S,2S)-2-(4-fluoro-2-methoxyphenyl)cyclopropyl)methoxy)-8-(trifluoromethyl)-[1,2,4]triazolo[4,3-a]pyridine] |  |
|  | Fc1ccc([C@H]2C[C@@H]2COc2ccn3c(CC4CC4)nnc3c2C(F)(F)F)cc1 (racemic) [Example 77, (±)-3-(Cyclopropylmethyl)-7-(((1S,2S)-2-(4-fluorophenyl)cyclopropyl)methoxy)-8-(trifluoromethyl)-[1,2,4]triazolo[4,3-a]pyridine] | 1.7 |
| 5.8 | FC(COc1ccn2c(CC3CC3)nnc2c1C(F)(F)F)c1ccccc1 (racemic) [Example 84, 3-(Cyclopropylmethyl)-7-(2-fluoro-2-phenylethoxy)-8-(trifluoromethyl)-[1,2,4]triazolo[4,3-a]pyridine] |  |
| 25 | FC(F)(F)c1c(OCc2ccccc2)ccn2c(CC3CC3)nnc12 (racemic) [Example 85, 7-(Benzyloxy)-3-(cyclopropylmethyl)-8-(trifluoromethyl)-[1,2,4]triazolo[4,3-a]pyridine] |  |
| 6.9 | CO[C@]1(c2ccc(F)cc2)CC[C@H](Oc2ccn3c(C4CC4(F)F)nnc3c2C(F)(F)F)CC1 (mixture of isomers) [Example 86, (±)-3-(2,2-Difluorocyclopropyl)-7-((1s,4s)-4-(4-fluorophenyl)-4-methoxycyclohexyloxy)-8-(trifluoromethyl)-[1,2,4]triazolo[4,3-a]pyridine] |  |
| 12 | CO[C@]1(c2ccc(F)cc2)CC[C@H](Oc2ccn3c(C4CC4(C)C)nnc3c2C(F)(F)F)CC1 (mixture of isomers) [Example 94, 3-(2,2-Dimethylcyclopropyl)-7-((1s,4s)-4-(4-fluorophenyl)-4-methoxycyclohexyloxy)-8-(trifluoromethyl)-[1,2,4]triazolo[4,3-a]pyridine] |  |
| 41 | CO[C@]1(c2ccc(F)cc2)CC[C@H](Oc2ccn3c([C@@H]4C[C@H]4F)nnc3c2C(F)(F)F)CC1 (relative stereo) [Example 89, (±)-rel-3-((1S,2R)-2-Fluorocyclopropyl)-7-((1s,4s)-4-(4-fluorophenyl)-4-methoxycyclohexyloxy)-8-(trifluoromethyl)-[1,2,4]triazolo[4,3-a]pyridine] |  |
| 0.8 | C[C@@H](COc1ccn2c(CC3CC3)nnc2c1C(F)(F)F)c1c(F)cccc1Cl (single isomer, unassigned) [Example 9] |  |
| 0.8 | C[C@H](COc1ccn2c(CC3CC3)nnc2c1C(F)(F)F)c1c(F)cccc1Cl (single isomer, unassigned) [Example 10] |  |
| 230 | C[C@@](C#N)(COc1ccn2c(CC3CC3)nnc2c1C(F)(F)F)c1ccc(F)cc1 (single isomer, unassigned) [Example 14] |  |
| 80 | C[C@](C#N)(COc1ccn2c(CC3CC3)nnc2c1C(F)(F)F)c1ccc(F)cc1 (single isomer, unassigned) [Example 15] |  |
| 36 | CO[C@@](C)(COc1ccn2c(CC3CC3)nnc2c1C(F)(F)F)c1ccc(F)cc1 (single isomer, unassigned) [Example 24] |  |
| 25 | CO[C@](C)(COc1ccn2c(CC3CC3)nnc2c1C(F)(F)F)c1ccc(F)cc1 (single isomer, unassigned) [Example 25] |  |
| 0.2 | COc1cccc(F)c1[C@H]1C[C@@H]1COc1ccn2c(CC3CC3)nnc2c1C(F)(F)F (single isomer, unassigned) [Example 35] |  |
| 0.2 | COc1cccc(F)c1[C@@H]1C[C@H]1COc1ccn2c(CC3CC3)nnc2c1C(F)(F)F (single isomer, unassigned) [Example 36] |  |
| 0.6 | COc1ccccc1[C@H]1C[C@@H]1COc1ccn2c(CC3CC3)nnc2c1C(F)(F)F (single isomer, unassigned) [Example 39] |  |
| 1.4 | COc1ccccc1[C@@H]1C[C@H]1COc1ccn2c(CC3CC3)nnc2c1C(F)(F)F (single isomer, unassigned) [Example 40] |  |
| 2.2 | FC(F)(F)Oc1ccccc1[C@H]1C[C@@H]1COc1ccn2c(CC3CC3)nnc2c1C(F)(F)F (single isomer, unassigned) [Example 41] |  |
| 1.9 | FC(F)(F)Oc1ccccc1[C@@H]1C[C@H]1COc1ccn2c(CC3CC3)nnc2c1C(F)(F)F (single isomer, unassigned) [Example 42] |  |

| SMILES | EC50 [1] [nM] | EC50 (EC50 (nM), activity in mGluR2 cAMP assay) [nM] |
| --- | --- | --- |
| CC(COc1ccn2c(CC3CC3)nnc2c1C(F)(F)F)c1ccc(F)cc1 (racemic) [Example 4, 3-(Cyclopropylmethyl)-7-(2-(4-fluorophenyl)propoxy)-8-(trifluoromethyl)-[1,2,4]triazolo[4,3-a]pyridine, TFA salt] | 10 |  |
| FC(F)(F)c1c(OC[C@H]2C[C@@H]2c2ccc(Cl)cc2)ccn2c(CC3CC3)nnc12 (racemic) [Example 31, (±)-7-(((1S,2S)-2-(4-chlorophenyl)cyclopropyl)methoxy)-3-(cyclopropylmethyl)-8-(trifluoromethyl)-[1,2,4]triazolo[4,3-a]pyridine] | 1.3 |  |
| Fc1ccc([C@H]2C[C@H](Oc3ccn4c(C5CC5(F)F)nnc4c3C(F)(F)F)C2)cc1 (mixture of isomers) [Example 98, (±)-3-(2,2-Difluorocyclopropyl)-7-((1r,3r)-3-(4-fluorophenyl)cyclobutoxy)-8-(trifluoromethyl)-[1,2,4]triazolo[4,3-a]pyridine] | 5.1 |  |
